Literature values as cited in article PMC7179450, “Primary Human Hepatocytes, But not HepG2 or Balb/c 3T3 Cells, Efficiently Metabolize Salinomycin and Are Resistant to Its Cytotoxicity” (Molecules, 2020).
Read-outs that look alike come from different tables or passages of the source.

Test system: all tested cell models
Parameters: method as in PMID 30012479
Settings: cited from earlier work

Structure (SMILES)	cytotoxicity at tested concentrations (prednisolone 1 µg/mL)	cytotoxicity at tested concentrations (tiamulin 1 or 10 µg/mL)
C[C@]12C=CC(=O)C=C1CC[C@@H]1[C@@H]2[C@@H](O)C[C@@]2(C)[C@H]1CC[C@]2(O)C(=O)CO [prednisolone]	non-cytotoxic	
C=C[C@]1(C)C[C@@H](OC(=O)CSCCN(CC)CC)[C@]2(C)[C@H](C)CC[C@]3(CCC(=O)[C@H]32)[C@@H](C)[C@@H]1O [tiamulin]		non-cytotoxic
